Columns and labels:
[1] = tested on: rodents; parameters: method as in Budzik et al., 2010; conditions: ref Budzik et al., 2010; cited from earlier work
[2] = molecular target: T1, M5 mAChR (Homo sapiens, UniProt P08912); test: ERK1/2 phosphorylation, CHO cells, M5; assay type: cell-based
T1 construct: expressed in transfected cells; host or cells: CHO

[3] = molecular target: T2, humanized M1 DREADD (Homo sapiens, UniProt P11229, A196G/Y106C); test: IP1 accumulation and ERK1/2 phosphorylation at M1 DREADD, CHO Flp-In cells; assay type: cell-based
T2 construct: expressed in transfected cells; host or cells: CHO Flp-In

[4] = tested on: humans; parameters: method as in Nathan et al., 2013; conditions: ref Nathan et al., 2013; cited from earlier work
[5] = molecular target: T3, human mAChR M3 (Homo sapiens, UniProt P20309); test: [3H]-NMS competition binding, CHO membranes, M3; conditions: compared with other subtypes
T3 construct: purchased PerkinElmer; host or cells: CHO
Protocol: (§1) For competition binding experiments at M1, M2, M3, M4, and M5 mAChRs, CHO membranes were purchased from PerkinElmer. All experiments were performed in assay buffer of the following composition: 20 mM HEPES, 100 mM NaCl, and 10 mM MgCl2, pH 7.5, and used 10 µg protein/well in a total assay volume of 1 ml using deep well blocks. […] All assay incubations were initiated by the addition of membrane suspensions and deep well blocks were shaken for 5 minutes to ensure complete mixing. Incubation was then carried out for 2 hours at 21°C. Binding reactions were terminated by rapid filtration through GF/A filters (PerkinElmer) presoaked with 0.5% (w/v) polyethylenimine for 1 hour. Filters were then washed three times with 1 ml ice-cold assay buffer.
(§2) Inhibition binding data were curve-fit using GraphPad Prism 6 to derive the potency (IC50) of the test compound. The equilibrium dissociation constant (KI) of the test compound was then calculated with the Cheng–Prusoff equation: KI = IC50/[1 + ([L]/KD)] using the KD value derived separately from saturation binding studies.

[6] = molecular target: T4, M1 DREADD (Homo sapiens, UniProt P11229, A196G/Y106C); test: Receptor phosphorylation at serine 228, M1 DREADD, CHO Flp-In cells; assay type: cell-based; conditions: compared with wild type
T4 construct: HA; expressed in transfected cells; host or cells: CHO Flp-In

[7] = molecular target: T5, human M1 receptor (Homo sapiens, UniProt P11229); test: ERK1/2 phosphorylation, CHO Flp-In human M1 cells; assay type: cell-based
T5 construct: expressed in transfected cells; host or cells: CHO Flp-In
T5 sequence (P11229 1-460): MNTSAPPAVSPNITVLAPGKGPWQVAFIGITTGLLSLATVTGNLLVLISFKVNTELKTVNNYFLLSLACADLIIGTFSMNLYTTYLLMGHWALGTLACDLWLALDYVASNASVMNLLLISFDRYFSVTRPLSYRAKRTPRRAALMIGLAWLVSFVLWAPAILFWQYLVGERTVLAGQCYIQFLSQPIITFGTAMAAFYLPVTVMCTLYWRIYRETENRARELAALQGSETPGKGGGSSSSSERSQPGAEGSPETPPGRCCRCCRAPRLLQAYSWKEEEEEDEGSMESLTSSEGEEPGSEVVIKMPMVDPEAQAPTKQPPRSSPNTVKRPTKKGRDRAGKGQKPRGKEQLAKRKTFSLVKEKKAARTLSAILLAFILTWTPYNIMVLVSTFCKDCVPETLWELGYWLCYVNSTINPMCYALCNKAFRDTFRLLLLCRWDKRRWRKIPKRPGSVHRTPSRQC
Protocol: CHO Flp-In cells stably expressing the human M1 receptor were seeded onto transparent 96-well plates at 20,000 cells/well and grown to confluence. Cells were serum starved overnight prior to the experiment. Prior to the stimulations, cells were washed with 100 μl phosphate-buffered saline and then incubated in serum free F12 medium at 37°C. Cells were stimulated with ligands for 5 minutes at 37°C in a final volume of 200 μl. The stimulations were terminated by rapid aspiration and addition of 50 μl lysis buffer supplemented with blocking reagent per the manufacturer’s instructions, followed by gentle agitation at room temperature for 30 minutes. Subsequently, 16 μl of this lysate was transferred to a 384-well white ProxiPlate (PerkinElmer) and incubated with 4 μl premixed antibody solution for 2 hours at room temperature.
For the analysis, all families of agonist curves at each pathway were globally fitted to the model with the parameters, basal, Em, and n shared between all agonists. For full agonists, the LogKA was constrained to a value of zero, whereas for partial agonists this was directly estimated by the curve fitting procedure; the Log(τ/KA) parameter was estimated as a unique measure of activity for each agonist.

[8] = molecular target: T6, human mAChR M2 (Homo sapiens, UniProt P08172); test: [3H]-NMS competition binding, CHO membranes, M2
T6 construct: purchased PerkinElmer; host or cells: CHO
Protocol: as §1, §2

[9] = molecular target: T7, M3 mAChR (isolated rat ileum) (Rattus norvegicus, UniProt P08483); test: Isolated rat ileum contraction; conditions: single experiment
T7 construct: from tissue; host or cells: ileum of adult Wistar rats
Protocol: Adult Wistar rats were humanely euthanized and the left atria and the ileum were placed in an organ bath containing oxygenated Tyrode solution. Measurement of negative inotropic responses in atria or contraction of ileum was performed as described by [Lambrecht et al. (1989)]. For atrial responses, ligands were administered for 5 minutes at 32°C in McEwen’s buffer (pH 7.4) in a bath volume of 10 ml. […] For rat ileum experiments, ligands were administered for 5 minutes at 32°C in Krebs’ buffer (pH 7.4) in a bath volume of 10 ml. Contraction of ileum as a percentage of methacholine-induced contraction was measured, and antagonistic effects were measured by inhibition of methacholine-induced responses.

[10] = molecular target: T8, human M1 mAChR (Homo sapiens, UniProt P11229); test: Kinetic [3H]-NMS binding (dissociation) in membranes; parameters: expressed in transfected cells; host or cells: CHO Flp-In; conditions: compound 10 μM plus atropine 10 μM
T8 sequence (P11229 1-460): T5 sequence (P11229 1-460)
Protocol: Reactions were terminated by rapid filtration onto GF/B filter paper (Whatman, Maidstone, UK) and three washes with 3 ml ice-cold 0.9% NaCl using a Brandel harvester (M-24TI; Brandel, Fort Lauderdale, FL). Membrane bound radioactivity was determined by liquid scintillation (Ultima Gold; PerkinElmer) counting.

[11] = molecular target: T8, human M1 mAChR; test: IP1 accumulation after receptor alkylation with phenoxybenzamine (functional interaction with ACh)

T7 sequence (P08483 whole entry): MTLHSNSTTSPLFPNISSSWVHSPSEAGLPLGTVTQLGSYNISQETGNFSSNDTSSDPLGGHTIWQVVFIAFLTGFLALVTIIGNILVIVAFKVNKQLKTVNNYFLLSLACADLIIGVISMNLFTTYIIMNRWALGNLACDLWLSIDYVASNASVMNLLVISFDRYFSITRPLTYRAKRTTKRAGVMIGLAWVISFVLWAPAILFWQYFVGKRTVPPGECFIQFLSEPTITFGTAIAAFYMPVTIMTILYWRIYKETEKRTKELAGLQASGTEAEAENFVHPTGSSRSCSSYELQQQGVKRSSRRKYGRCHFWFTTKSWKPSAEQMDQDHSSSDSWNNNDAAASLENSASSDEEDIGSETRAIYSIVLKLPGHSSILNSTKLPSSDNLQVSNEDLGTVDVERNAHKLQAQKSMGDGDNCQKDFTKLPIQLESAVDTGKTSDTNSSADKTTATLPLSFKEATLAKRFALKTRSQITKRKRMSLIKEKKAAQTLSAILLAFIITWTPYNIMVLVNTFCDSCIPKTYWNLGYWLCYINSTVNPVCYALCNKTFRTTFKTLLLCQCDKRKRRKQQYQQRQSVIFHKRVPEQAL
T4 sequence (P11229 whole entry Y106C/A196G): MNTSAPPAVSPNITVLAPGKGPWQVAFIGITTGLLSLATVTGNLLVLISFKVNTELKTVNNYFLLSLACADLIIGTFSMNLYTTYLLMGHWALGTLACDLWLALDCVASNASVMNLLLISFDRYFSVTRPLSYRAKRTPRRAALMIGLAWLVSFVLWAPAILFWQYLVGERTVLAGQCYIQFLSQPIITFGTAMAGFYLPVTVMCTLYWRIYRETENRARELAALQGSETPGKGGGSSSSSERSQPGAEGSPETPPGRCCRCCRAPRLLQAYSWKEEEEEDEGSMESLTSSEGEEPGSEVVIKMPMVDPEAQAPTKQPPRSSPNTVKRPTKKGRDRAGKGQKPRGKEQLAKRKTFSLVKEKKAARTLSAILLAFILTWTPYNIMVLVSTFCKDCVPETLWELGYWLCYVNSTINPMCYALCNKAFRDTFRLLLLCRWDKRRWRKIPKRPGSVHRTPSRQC
T2 sequence (P11229 whole entry Y106C/A196G): as above
T3 sequence (P20309 whole entry): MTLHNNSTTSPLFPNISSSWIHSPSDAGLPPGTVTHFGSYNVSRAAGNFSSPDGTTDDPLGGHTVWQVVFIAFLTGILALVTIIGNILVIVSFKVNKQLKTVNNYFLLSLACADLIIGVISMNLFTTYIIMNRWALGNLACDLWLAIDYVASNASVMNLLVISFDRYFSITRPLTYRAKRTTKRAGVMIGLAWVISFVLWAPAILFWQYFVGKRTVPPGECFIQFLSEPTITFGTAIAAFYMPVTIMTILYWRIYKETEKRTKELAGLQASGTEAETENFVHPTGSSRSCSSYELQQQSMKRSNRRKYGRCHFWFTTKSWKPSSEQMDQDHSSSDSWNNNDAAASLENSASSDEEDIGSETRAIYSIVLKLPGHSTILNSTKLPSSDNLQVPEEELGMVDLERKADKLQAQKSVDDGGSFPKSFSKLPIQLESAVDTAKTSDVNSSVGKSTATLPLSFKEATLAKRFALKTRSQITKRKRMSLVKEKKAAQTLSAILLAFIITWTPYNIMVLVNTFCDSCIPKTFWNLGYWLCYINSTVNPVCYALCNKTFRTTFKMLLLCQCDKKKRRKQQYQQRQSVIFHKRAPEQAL
T6 sequence (P08172 whole entry): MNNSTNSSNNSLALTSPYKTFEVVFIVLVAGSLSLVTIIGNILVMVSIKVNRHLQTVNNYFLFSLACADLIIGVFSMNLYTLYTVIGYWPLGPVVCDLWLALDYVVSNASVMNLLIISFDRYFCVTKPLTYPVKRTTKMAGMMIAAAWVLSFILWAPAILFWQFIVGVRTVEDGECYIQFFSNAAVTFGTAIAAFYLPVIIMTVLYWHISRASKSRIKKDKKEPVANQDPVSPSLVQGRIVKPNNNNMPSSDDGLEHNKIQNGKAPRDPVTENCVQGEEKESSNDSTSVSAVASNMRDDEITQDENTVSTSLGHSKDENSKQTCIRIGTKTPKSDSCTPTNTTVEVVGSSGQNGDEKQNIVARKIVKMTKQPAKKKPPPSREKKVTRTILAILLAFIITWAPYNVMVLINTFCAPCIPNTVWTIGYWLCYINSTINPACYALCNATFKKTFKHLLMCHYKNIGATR
T1 sequence (P08912 whole entry): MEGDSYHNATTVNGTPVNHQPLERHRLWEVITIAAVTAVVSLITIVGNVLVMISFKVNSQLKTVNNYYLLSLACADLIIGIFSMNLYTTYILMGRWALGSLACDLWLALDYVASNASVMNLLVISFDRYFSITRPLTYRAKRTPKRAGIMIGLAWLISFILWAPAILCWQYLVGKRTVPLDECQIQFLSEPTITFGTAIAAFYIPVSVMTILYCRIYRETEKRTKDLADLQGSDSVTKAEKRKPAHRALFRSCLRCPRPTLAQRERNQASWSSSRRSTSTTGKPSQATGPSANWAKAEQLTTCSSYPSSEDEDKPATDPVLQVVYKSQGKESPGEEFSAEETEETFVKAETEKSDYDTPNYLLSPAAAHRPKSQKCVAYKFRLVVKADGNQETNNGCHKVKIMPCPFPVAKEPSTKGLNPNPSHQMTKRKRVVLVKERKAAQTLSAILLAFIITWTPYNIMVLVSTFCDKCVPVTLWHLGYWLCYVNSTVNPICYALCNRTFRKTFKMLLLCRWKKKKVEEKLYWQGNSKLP

functional activity in ERK1/2 phosphorylation [2]: partial agonist activity | potency and efficacy at the M1 DREADD compared with the wild-type receptor [3]: comparable potency and efficacy | affinity for the M3 mAChR [5]: much lower affinity | phosphorylation at serine 228 [6]: unchanged | ERK1/2 Phosphorylation ΔLog10(τ/KA) ([7]; normalized to reference ligand ACh): 0.1 ± 0.1 | ERK1/2 Phosphorylation Log10(τ/KA) ([7]; transduction coefficient, wild-type M1 mAChR): 7.2 ± 0.1 | Ki [8]: 3.98 µM | EC50 [9]: 7 µM | rat ileum contraction, % of maximal methacholine-induced contraction [9]: approximately 50% | IC50 ([9]; read-out: IC50, inhibition of methacholine-induced contraction of rat ileum): 46 µM | effect on the [^3H]-NMS dissociation rate [10]: no effect | Kb [11]: 0.631 µM | agonist effect in IP1 accumulation after phenoxybenzamine ([11]; cells treated with 3 μM phenoxybenzamine): no agonist effect
Structure (SMILES): Cc1cc(F)c2[nH]c(=O)n(C3CCN(C4CCOCC4)CC3)c2c1 [GSK1034702, 7-fluoro-5-methyl-3-[1-(oxan-4-yl)piperidin-4-yl]-1H-benzimidazol-2-one]
effect on scopolamine-induced amnesia [1]: reversed scopolamine-induced amnesia | adverse effects [4]: induced gastrointestinal adverse effects | effect on cognitive function [4]: positive effects on cognitive function

Source: article PMC5963591, “Bitopic Binding Mode of an M1 Muscarinic Acetylcholine Receptor Agonist Associated with Adverse Clinical Trial Outcomes” (Molecular Pharmacology, 2018)
